In patent US20100256357A1, “HETEROCYCLES USEFUL AS INHIBITORS OF CARBONIC ANHYDRASE” (Agouron Pharmaceuticals, Inc., priority 2006, published 2010):

Target: T1, human CA-IV (Homo sapiens, UniProt P22748)
T1 construct: made in house; host or cells: Escherichia coli BL21(DE3)
Assay: Carbonic Anhydrase-IV (CA-IV) Fluorescence Polarization Assay-IC50 Determination
Format: binding
Conditions: read-out: IC50_CAIV
Protocol: Carbonic Anhydrase-IV (CA-IV) Fluorescence Polarization Assay-IC50 Determination
These cells were grown in Luria broth (LB) media (Biomyx) supplemented with 800 uM ZnCl2 at 37° C. until an O.D.600 of 0.7, at which point the cells were induced with 100 uM isopropyl-beta-D-thiogalactopyranoside (IPTG) for 20 hours at 20° C. The frozen pellet was resuspended in 50mM 2-morpholinoethanesulfonic acid (MES) at pH 6.0, 100 mM NaCl, 800 uM ZnCl2 and EDTA-Free protease inhibitors (Roche). The cells were lysed with a microfluidizer, the lysate was spun at 40,000 rpm for 45 minutes at 4° C., and the soluble fraction was dialyzed overnight at 4° C. in 50 mM MES pH 6.0, and 100 mM NaCl. The soluble fraction was then put over a 100 ml SP-Sepharose High Performance (GE Healthcare) column and eluted with a 50 mM MES pH 6.0, 750 mM NaCl gradient. The peak fractions were then concentrated, via an Amicon Ultra-4 10,000 MWCO (Millipore) spin column to 2.0 mL and loaded onto a Sephacryl S-100 High Resolution (GE Healthcare) column in 25 mM tris(hydroxymethyl)aminomethane hydrochloride (Tris-HCl) pH 7.0, and 100 mM NaCl. The peak fractions were then concentrated, via an Amicon Ultra-4 10,000 MWCO (Millipore) spin column, to 7.0 mg/mL and left exposed at room temperature overnight. […] T.; et al. Carbonic Anhydrase Inhibitors. Med. Res. Rev. […]
Assays were conducted in a final volume of 100 μL in 50 mM Tris/HCl (pH 7.6), 100 mM Na2SO4 and 0.005% Tween-20 in a 96-well black assay plate.

T1 sequence (P22748 19-284 limits assumed): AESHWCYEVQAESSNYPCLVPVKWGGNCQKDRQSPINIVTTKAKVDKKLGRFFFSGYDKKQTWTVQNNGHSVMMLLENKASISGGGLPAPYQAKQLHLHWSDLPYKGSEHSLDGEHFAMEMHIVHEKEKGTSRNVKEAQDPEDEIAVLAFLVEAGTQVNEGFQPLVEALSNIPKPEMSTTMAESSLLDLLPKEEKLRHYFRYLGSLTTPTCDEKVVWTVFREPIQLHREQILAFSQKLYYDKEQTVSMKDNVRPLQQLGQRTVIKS

| SMILES | IC50 |
| --- | --- |
| NS(=O)(=O)c1ccc(-n2nc(CN3CC=CCC3)cc2Cc2ccccc2)c(F)c1 [QQ-1g, 4-[5-benzyl-3-(3,6-dihydropyridin-1(2H)-ylmethyl)-1H-pyrazol-1-yl]-3-fluorobenzenesulfonamide] | 354 nM |
| NS(=O)(=O)c1ccc(-n2nc(CO)cc2Cc2ccccc2)c(F)c1 [qq-3, 4-[5-Benzyl-3-(hydroxymethyl)-1H-pyrazol-1-yl]-3-fluorobenzenesulfonamide] | 372 nM |
| CCCN(C)Cc1cc(Cc2ccccc2)n(-c2ccc(S(N)(=O)=O)cc2)n1 [QQ-1e, 4-(5-benzyl-3-{[methyl(propyl)amino]methyl}-1H-pyrazol-1-yl)benzenesulfonamide] | 379 nM |
| Cc1cc(C(=O)N2CCOCC2)nn1-c1ccc(S(N)(=O)=O)cc1CNCc1ccccc1 [LL-1a, 3-[(benzylamino)methyl]-4-(5-methyl-3-(morpholin-4-ylcarbonyl)-1H-pyrazol-1-yl]benzenesulfonamide] | > 5000 nM |
| Cc1cc(C(=O)O)nn1-c1ccc(S(N)(=O)=O)cc1 [mm-2a, 1-[4-(aminosulfonyl)phenyl]-5-methyl-1H-pyrazole-3-carboxylic acid] | ≥ 5000 nM |
| CCNC(=O)c1cc(C)n(-c2ccc(S(N)(=O)=O)cc2C(=O)NCc2ccccc2)n1 [KK-1h, 1-{4-(aminosulfonyl)-2-[(benzylamino)carbonyl]phenyl}-N-ethyl-5-methyl-1H-pyrazole-3-carboxamide] | 2190 nM |
| CCOC(=O)c1cc(C)n(-c2ccc(S(N)(=O)=O)cn2)n1 [mm-1, ethyl 1-[5-(aminosulfonyl)pyridin-2-yl]-5-methyl-1H-pyrazole-3-carboxylate] | 1050 nM |
| CN(Cc1cc(Cc2ccc(Cl)cc2)n(-c2ccc(S(N)(=O)=O)cc2)n1)C1CCCCC1 [QQ-1o, 4-[5-(4-chlorobenzyl)-3-{[cyclohexyl(methyl)amino]methyl}-1H-pyrazol-1-yl]benzenesulfonamide] | 308 nM |
| CCNC(=O)c1cc(C)n(-c2ccc(S(N)(=O)=O)cc2C(=O)NCC)n1 [KK-1m, 1-{4-(aminosulfonyl)-2-[(ethylamino)carbonyl]phenyl}-N-ethyl-5-methyl-1H-pyrazole-3-carboxamide] | > 5000 nM |
| Cc1cccc(Cc2cc(CN3CCCC(C#N)C3)nn2-c2ccc(S(N)(=O)=O)cc2F)c1 (stereo not drawn) [PP-1a, 4-[3-[(3-cyanopiperidin-1-yl)methyl]-5-(3-methylbenzyl)-1H-pyrazol-1-yl]-3-fluorobenzenesulfonamide] | 168 nM |
| COCCN(C)Cc1cc(Cc2cccc(C)c2)n(-c2ccc(S(N)(=O)=O)cc2F)n1 [PP-1b, 3-fluoro-4-[3-{[(2-methoxyethyl)(methyl)amino]methyl}-5-(3-methylbenzyl)-1H-pyrazol-1-yl]benzenesulfonamide] | 145 nM |
| CCNC(=O)c1cc(C)n(-c2ccc(S(N)(=O)=O)cc2C(=O)OC(C)C)n1 [KK-1r] | 1310 nM |
| NS(=O)(=O)c1ccc(-n2nc(C(F)(F)F)c3c2CCNC3)c(C(=O)NCc2ccccc2)c1 [KK-1p, 5-(aminosulfonyl)-N-benzyl-2-[3-(triflurormethyl)-4,5,6,7-tetrahydro-1H-pyrazolo[4,3-c]pyridin-1-yl]benzamide] | > 5000 nM |
| NS(=O)(=O)c1ccc(-n2nc(C(=O)O)cc2Cc2ccccc2)cc1 [pp-2a, 1-[4-(aminosulfonyl)phenyl]-5-benzyl-1H-pyrazole-3-carboxylic acid] | 492 nM |
| NS(=O)(=O)c1ccc(-n2nc(C(=O)O)cc2Cc2ccc(Cl)cc2)cc1 [pp-2b, 1-[4-(aminosulfonyl)phenyl]-5-(4-chlorobenzyl]-1H-pyrazole-3-carboxylic acid] | 459 nM |
| CCNC(=O)c1cc(C)n(-c2ccc(S(N)(=O)=O)cc2C(=O)NCc2ccncc2)n1 [KK-1o, 1-[4-(aminosulfonyl)-2-{[(pyridin-4-ylmethyl)amino]carbonyl}phenyl]-N-ethyl-5-methyl-1H-pyrazole-3-carboxamide] | 4530 nM |
| NS(=O)(=O)c1ccc(-n2nc(CN3CC=CCC3)cc2Cc2ccc(Br)cc2)c(F)c1 [QQ-1k, 4-[5-(4-bromobenzyl)-3-(3,6-dihydropyridin-1(2H)-ylmethyl)-1H-pyrazol-1-yl]-3-fluorobenzenesulfonamide] | 253 nM |
| NS(=O)(=O)c1ccc(-n2nc(CN3CCOCC3)cc2Cc2ccc(Cl)cc2)cc1 [QQ-1a, 4-[5-(4-chlorobenzyl)-3-(morpholin-4-ylmethyl)-1H-pyrazol-1-yl]benzenesulfonamide] | 563 nM |

| SMILES | IC50 |
| --- | --- |
| NS(=O)(=O)c1ccc(-n2nc(C(F)(F)F)c3c2CCNC3)c(C(=O)NCc2ccncc2)c1 [KK-1n, 5-(aminosulfonyl)-N-(pyridin-4-ylmethyl)-2-[3-(trifluoromethyl)-4,5,6,7-tetrahydro-1H-pyrazolo[4,3-c]pyridin-1-yl]benzamide] | > 5000 nM |
| NS(=O)(=O)c1ccc(-n2nc3c(c2CN2CCOCC2)CCCC3)cc1 [II-1c, 4-[3-(morpholin-4-ylmethyl)-4,5,6,7-tetrahydro-2H-indazol-2-yl]benzenesulfonamide] | ≥ 5000 nM |
| CCCN(C)Cc1cc(Cc2ccccc2)n(-c2ccc(S(N)(=O)=O)cc2F)n1 [QQ-1, 4-(5-benzyl-3-{[methyl(propyl)amino]methyl}-1H-pyrazol-1-yl)-3-fluorobenzenesulfonamide] | 301 nM |
| CCCCN(C)Cc1cc(Cc2ccc(Br)cc2)n(-c2ccc(S(N)(=O)=O)cc2F)n1 [QQ-1f] | 171 nM |
| CN(CCc1ccccn1)Cc1cc(Cc2ccc(Cl)cc2)n(-c2ccc(S(N)(=O)=O)cc2)n1 [QQ-1c, 4-[5-(4-chlorobenzyl)-3-{[methyl(2-pyridin-2-ylethyl)amino]methyl}-1H-pyrazol-1-yl]benzenesulfonamide] | 380 nM |
| CCNCc1cc(S(N)(=O)=O)ccc1-n1nc(C(F)(F)F)c2c1CCCC2 [LL-1, 3-[(Ethylamino)methyl]-4-[3-(trifluoromethyl)-4,5,6,7-tetrahydro-1H-indazol-1-yl]-benzene-sulfonamide] | ≥ 5000 nM |
| NS(=O)(=O)c1ccc(-n2nc(CO)cc2Cc2ccccc2)cc1 [qq-3b, 4-[5-benzyl-3-(hydroxymethyl)-1H-pyrazol-1-yl]benzenesulfonamide] | 436 nM |
| CN(Cc1cc(Cc2ccccc2)n(-c2ccc(S(N)(=O)=O)cc2)n1)C1CCCCC1 [QQ-1m, 4-(5-benzyl-3-{[cyclohexyl(methyl)amino]methyl}-1H-pyrazol-1-yl)benzenesulfonamide] | 314 nM |
| Cc1cccc(Cc2cc(CN3CCC(F)(F)C3)nn2-c2ccc(S(N)(=O)=O)cc2F)c1 [PP-1, 4-[3-[(3,3-difluoropyrrolidin-1-yl)methyl]-5-(3-methylbenzyl)-1H-pyrazol-1-yl]-3-fluorobenzenesulfonamide] | 114 nM |
| NS(=O)(=O)c1ccc(-n2nc(CO)c3c2CCCC3)cc1 [qq-3d, 4-[3-(hydroxymethyl)-4,5,6,7-tetrahydro-1H-indazol-1-yl]benzenesulfonamide] | ≥ 5000 nM |
| C[C@@H]1CN(Cc2cc(Cc3ccccc3)n(-c3ccc(S(N)(=O)=O)cc3F)n2)C[C@H](C)O1 [QQ-1i, 4-(5-benzyl-3-{[(2R,6S)-2,6-dimethylmorpholin-4-yl]methyl}-1H-pyrazol-1-yl)-3-fluorobenzenesulfonamide] | 480 nM |
| C[C@@H]1CN(Cc2cc(Cc3ccccc3)n(-c3ccc(S(N)(=O)=O)cc3)n2)C[C@H](C)O1 [QQ-1d, 4-(5-benzyl-3-{[(2R,6S)-2,6-dimethylmorpholin-4-yl]methyl}-1H-pyrazol-1-yl)benzenesulfonamide] | 400 nM |
| NS(=O)(=O)c1ccc(-n2nc(CO)cc2Cc2ccc(Br)cc2)c(F)c1 [qq-3c, 4-[5-(4-bromobenzyl)-3-(hydroxymethyl)-1H-pyrazol-1-yl]-3-fluorobenzenesulfonamide] | 468 nM |
| NS(=O)(=O)c1ccc(-n2nc(CNCC3CCCCC3)cc2Cc2ccc(Cl)cc2)cc1 [QQ-1b, 4-[5-(4-chlorobenzyl)-3-{[(cyclohexylmethyl)amino]methyl}-1H-pyrazol-1-yl]benzenesulfonamide] | 281 nM |
| NS(=O)(=O)c1ccc(-n2nc(CN3CC=CCC3)cc2Cc2ccccc2)cc1 [QQ-1l, 4-[5-benzyl-3-(3,6-dihydropyridin-1(2H)-ylmethyl)-1H-pyrazol-1-yl]benzenesulfonamine] | 552 nM |
| CN(Cc1cc(Cc2ccccc2)n(-c2ccc(S(N)(=O)=O)cc2F)n1)C1CCCCC1 [Example -1h, 4-(5-benzyl-3-{[cyclohexyl(methyl)amino]methyl}-1H-pyrazol-1-yl)-3-fluorobenzenesulfonamide] | 186 nM |
| CCCCN(C)Cc1cc(Cc2ccc(Cl)cc2)n(-c2ccc(S(N)(=O)=O)cc2)n1 [QQ-1n, 4-[3-{[butyl(methyl)amino]methyl}-5-(4-chlorobenzyl)-1H-pyrazol-1-yl]benzenesulfonamide] | 455 nM |
| CCCCN(C)Cc1cc(Cc2ccccc2)n(-c2ccc(S(N)(=O)=O)cc2F)n1 [QQ-1j, 4-(5-benzyl-3-{[butyl(methyl)amino]methyl}-1H-pyrazol-1-yl)-3-fluorobenzenesulfonamide] | 278 nM |
